Results on four compounds are retold here after patent US12576074B2, “Kits and methods for induction of cardioversion in subjects with atrial arrhythmias” (InCarda Therapeutics, Inc., priority 2020, dated 2026).

For series [1] the following is noted: cited from earlier work.
Series [2] relates to Sinclair swine. Nature of the series: Electrocardiograms after IV infusion in swine. As for the experimental part: After the animals were transferred to study, all animals were randomly assigned to treatment groups per the study design described below. This study was designed as a cross-over design with a minimum of 1-week washout between Treatment “A” and Treatment “B”. […] Electrocardiograms (EKGs) were performed prior to infusion and within 30 minutes of dose completion for both “A” and “B” treatments. Infusions were performed under sedation and anesthesia was maintained post-infusion for the duration of the blood collections. Blood was collected following TABLE 5 below: prior to infusion, halfway through infusion, and at 0, 2, 4, 6, 8, 10, 15, 30, 45, 60, and 120 minutes post-infusion completion for both treatment “A” and “B”.
Swine were sedated with target doses of 0.5 mg/kg of midazolam and 25 mg/kg of ketamine (actual doses ranging from […] and 24.83-25.33 mg/kg, respectively), with the exception of one animal which received half the target doses per veterinary instruction (0.26 mg/kg midazolam and 12.67 mg/kg ketamine). Animals were anesthetized with isoflurane (5% for induction, ˜0.5-3% for maintenance) via face mask inhalation for the duration of the infusion and blood collections. All anesthesia and monitoring of vital parameters were performed in accordance with ACL-2011.
All animals underwent an electrocardiogram (EKG) using the EMKA system. EKGs were collected prior to dosing (any time prior to each dose administration) and within 30 minutes completion of each infusion per TLE-2125, Physiological Data Collection for Large Animals Using the emkaPACK4g Acquisition System. ECG waveforms were quantitatively evaluated for heart rate (HR) and PR, QRS, and QT/QTc intervals using a validated ecgAUTO system (v3.5.5, emka TECHNOLOGIES, Paris, France). • QTcB (Bazett's)=QT/RR(1/2) • QTcF (Fridericia)=QT/RR(1/3) • QTcV (Van de Water)=QT−0.087 (RR−1000) Where RR=time between successive beats, measured in milliseconds.

The target of series [3] is cardiac voltage-gated sodium channels (Nav1.5 subtype), peak sodium current (Homo sapiens, UniProt Q14524). As to conditions: unbinding from bound sodium channels; cited from earlier work.
In series [4] the target is ryanodine receptor RyR2 (IRyR) (Homo sapiens, UniProt Q92736). To be noted: cited from earlier work.
The test system of a further series is Ito. As to conditions: value used in O'Hara-Rudy model; cited from earlier work.
Another series addresses T1, IK1 (Homo sapiens, UniProt P63252).
T1 sequence (P63252 1-427): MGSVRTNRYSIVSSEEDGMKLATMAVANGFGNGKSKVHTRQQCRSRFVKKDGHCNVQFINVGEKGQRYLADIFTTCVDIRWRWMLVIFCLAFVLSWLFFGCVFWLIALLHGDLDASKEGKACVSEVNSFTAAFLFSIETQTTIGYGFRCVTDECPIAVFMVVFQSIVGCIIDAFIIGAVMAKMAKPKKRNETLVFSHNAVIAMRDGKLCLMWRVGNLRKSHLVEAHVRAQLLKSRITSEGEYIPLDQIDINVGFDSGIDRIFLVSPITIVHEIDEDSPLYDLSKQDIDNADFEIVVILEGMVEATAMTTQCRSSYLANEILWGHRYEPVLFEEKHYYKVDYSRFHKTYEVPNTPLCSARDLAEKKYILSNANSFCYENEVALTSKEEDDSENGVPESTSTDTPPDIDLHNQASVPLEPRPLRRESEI
As to conditions: flecainide increases IK1; used to calculate Gk1; cited from earlier work.

Series [5] deals with paroxysmal atrial fibrillation. To be noted: average population; cited from earlier work.
In series [6] the test system is ACh-mediated AF in isolated arterially-perfused canine right atrium. Kind of series: Termination of ACh-induced persistent AF in canine isolated coronary-perfused right atrial preparations (Series II). Details: species or system canine (Beagles). To be noted: flecainide 1.5 μM, ibutilide 20 nM, ACh 0.5 μM.
Method: Experiments were performed using isolated arterially-perfused canine preparations consisting of right atrium with a rim of right ventricle. The hearts were from Beagles approximately 1 year of age and were stored in ice cold cardioplegic solution for approximately 40 minutes before experimentation.
During experiments, transmembrane action potential (AP) recordings (sampling rate 41 kHz) were obtained from the atrium and ventricle using floating glass microelectrodes (10-25 MΩ DC resistance). A pseudo-electrocardiogram (ECG) was recorded using two electrodes consisting of Ag/AgCl half cells placed in the Tyrode's solution, bathing the preparation, 1.0 to 1.2 cm from opposite ends of the atrial coronary-perfused preparations (FIG. 1). […] The diastolic threshold of excitation (DTE) was determined by increasing stimulus intensity in 0.01 mA steps starting from 0.1 mA, until a steady 1:1 activation was achieved. Post-repolarization refractoriness (PRR) was recognized when ERP exceeded APD90 in the ventricle and APD70 in atria. Ventricular ERP coincides with APD90, whereas atrial ERP generally coincides with APD70.
Ventricular electrical activity was monitored for the development of early afterdepolarizations (EADs) and torsade de pointes (TdP).
Stock solutions were made by dissolving test article dry powder in distilled water vehicle. […]
Series [7] concerns canine left ventricular wedge preparations. Nature of the series: Canine left ventricular wedge preparation, repolarization/EAD sensitised (Series III). To be noted: ibutilide 50 nM 40 min, then flecainide 1.5 μM 30 min added; 3 mM KCl. As for the experimental part: Drugs were administered in the order and concentrations specified in TABLE 4.
Canine left ventricular (LV) wedge preparations were excised from the same hearts used to obtain the right atrial preparations.
Panel A: Control. […] The numbers appearing under M APs indicate APD90 values, and those on the ECG recordings indicate QT interval values.

Series [8] has as its system Sinclair swine. Nature of the series: Clinical observations and survival in swine. As to conditions: two animals (one treatment A, one treatment B); deemed due to anesthesia. The format is in vivo. The text has this:
All animals survived to study completion. Animals underwent clinical observations continuously while the animals are under anesthesia during, pre- and post-dosing through to final blood collection per TXP-1532, Pharmacologic and Toxicological Observations of Experimental Animals, and twice daily per ACL-1974 Receipt, Quarantine and Husbandry of Swine. […] One of the animals in question was during the high-dose treatment (“B”) and was intubated and provided oxygen under the direction of veterinary staff. The other animal was during the low-dose treatment (“A”) and returned to breathing normally without need of additional support. Both of these abnormal events were deemed due to anesthesia.
All animals survived to study completion with no definitive test article clinical observations.

The target in series [9] is L-type calcium channels (ICaL), CaV1.2 channels (Homo sapiens, UniProt Q13936). As to conditions: cited from earlier work.
Chain of L-type calcium channels (ICaL), CaV1.2 channels (Q13936 whole entry): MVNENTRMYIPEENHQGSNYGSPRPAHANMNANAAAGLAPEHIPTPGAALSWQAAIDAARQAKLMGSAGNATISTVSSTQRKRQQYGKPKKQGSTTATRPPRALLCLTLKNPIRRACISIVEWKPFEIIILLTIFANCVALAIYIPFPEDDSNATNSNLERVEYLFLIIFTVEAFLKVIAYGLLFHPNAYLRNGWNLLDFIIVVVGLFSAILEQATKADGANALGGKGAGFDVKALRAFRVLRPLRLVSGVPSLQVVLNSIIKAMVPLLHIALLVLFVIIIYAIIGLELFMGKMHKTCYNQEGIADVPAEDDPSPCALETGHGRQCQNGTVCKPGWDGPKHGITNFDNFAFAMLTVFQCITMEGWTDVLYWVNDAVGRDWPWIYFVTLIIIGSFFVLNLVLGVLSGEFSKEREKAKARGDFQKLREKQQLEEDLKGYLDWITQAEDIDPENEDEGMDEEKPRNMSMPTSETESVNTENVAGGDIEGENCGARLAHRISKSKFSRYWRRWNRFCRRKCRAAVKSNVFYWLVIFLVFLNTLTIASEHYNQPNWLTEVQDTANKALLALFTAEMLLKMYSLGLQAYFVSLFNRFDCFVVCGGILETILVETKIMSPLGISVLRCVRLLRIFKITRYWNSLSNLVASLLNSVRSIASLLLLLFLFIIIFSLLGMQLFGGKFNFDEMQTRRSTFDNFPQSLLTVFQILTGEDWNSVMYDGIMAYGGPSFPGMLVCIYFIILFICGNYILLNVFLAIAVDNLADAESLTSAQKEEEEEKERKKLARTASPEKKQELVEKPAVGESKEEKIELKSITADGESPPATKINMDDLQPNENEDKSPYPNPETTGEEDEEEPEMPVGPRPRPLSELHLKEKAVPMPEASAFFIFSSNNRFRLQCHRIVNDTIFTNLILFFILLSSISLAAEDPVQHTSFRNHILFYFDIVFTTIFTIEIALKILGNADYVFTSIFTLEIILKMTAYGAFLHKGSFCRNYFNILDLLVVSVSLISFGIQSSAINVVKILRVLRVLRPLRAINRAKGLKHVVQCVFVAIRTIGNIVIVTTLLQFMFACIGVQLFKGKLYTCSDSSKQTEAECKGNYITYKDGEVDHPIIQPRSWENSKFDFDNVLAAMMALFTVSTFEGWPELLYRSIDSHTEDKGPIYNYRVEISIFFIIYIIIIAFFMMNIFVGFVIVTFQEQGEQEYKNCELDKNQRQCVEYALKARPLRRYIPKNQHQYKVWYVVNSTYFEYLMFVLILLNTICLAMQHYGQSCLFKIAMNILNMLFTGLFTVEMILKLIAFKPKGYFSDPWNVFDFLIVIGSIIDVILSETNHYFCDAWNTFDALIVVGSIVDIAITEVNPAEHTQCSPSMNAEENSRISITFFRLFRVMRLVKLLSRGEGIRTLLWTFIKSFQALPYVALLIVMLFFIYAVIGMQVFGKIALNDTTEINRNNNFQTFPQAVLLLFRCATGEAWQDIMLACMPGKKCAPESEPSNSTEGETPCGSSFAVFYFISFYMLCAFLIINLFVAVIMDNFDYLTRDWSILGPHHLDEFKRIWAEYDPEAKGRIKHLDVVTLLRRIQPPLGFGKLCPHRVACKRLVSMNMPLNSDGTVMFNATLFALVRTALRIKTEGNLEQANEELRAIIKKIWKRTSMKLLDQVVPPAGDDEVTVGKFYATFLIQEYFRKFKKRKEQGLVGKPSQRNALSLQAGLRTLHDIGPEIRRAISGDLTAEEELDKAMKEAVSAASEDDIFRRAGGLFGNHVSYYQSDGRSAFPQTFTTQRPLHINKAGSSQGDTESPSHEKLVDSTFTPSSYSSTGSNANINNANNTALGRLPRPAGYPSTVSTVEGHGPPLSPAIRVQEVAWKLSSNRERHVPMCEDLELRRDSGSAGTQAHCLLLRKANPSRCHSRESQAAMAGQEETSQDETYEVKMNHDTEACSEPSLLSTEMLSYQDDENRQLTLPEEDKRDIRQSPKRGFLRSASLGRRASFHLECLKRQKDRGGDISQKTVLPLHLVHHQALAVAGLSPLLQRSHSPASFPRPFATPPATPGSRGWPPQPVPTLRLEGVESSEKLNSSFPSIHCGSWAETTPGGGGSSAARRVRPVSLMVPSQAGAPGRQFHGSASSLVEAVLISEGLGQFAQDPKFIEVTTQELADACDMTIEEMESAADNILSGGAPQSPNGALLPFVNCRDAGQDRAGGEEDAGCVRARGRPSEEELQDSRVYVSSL
Chain of L-type calcium channels (ICaL), CaV1.2 channels (Q08289 whole entry partner): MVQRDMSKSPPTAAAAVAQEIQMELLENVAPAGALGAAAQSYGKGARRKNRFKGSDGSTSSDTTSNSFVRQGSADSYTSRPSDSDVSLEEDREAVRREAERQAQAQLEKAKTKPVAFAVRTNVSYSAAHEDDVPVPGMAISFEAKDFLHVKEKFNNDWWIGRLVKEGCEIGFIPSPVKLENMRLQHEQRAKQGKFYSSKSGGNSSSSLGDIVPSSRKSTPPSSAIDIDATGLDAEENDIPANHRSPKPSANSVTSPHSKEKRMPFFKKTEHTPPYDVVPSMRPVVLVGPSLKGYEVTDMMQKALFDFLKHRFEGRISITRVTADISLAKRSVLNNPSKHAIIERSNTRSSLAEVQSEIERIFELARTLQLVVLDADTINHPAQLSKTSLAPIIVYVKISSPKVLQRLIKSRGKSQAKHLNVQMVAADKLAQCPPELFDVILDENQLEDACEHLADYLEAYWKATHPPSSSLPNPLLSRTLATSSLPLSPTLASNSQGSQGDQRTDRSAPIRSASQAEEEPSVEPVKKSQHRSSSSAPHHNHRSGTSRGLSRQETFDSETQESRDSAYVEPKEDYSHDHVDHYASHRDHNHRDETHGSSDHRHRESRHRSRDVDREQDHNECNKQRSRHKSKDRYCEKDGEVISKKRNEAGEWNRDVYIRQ
Chain of L-type calcium channels (ICaL), CaV1.2 channels (P54289 25-956 partner limits assumed): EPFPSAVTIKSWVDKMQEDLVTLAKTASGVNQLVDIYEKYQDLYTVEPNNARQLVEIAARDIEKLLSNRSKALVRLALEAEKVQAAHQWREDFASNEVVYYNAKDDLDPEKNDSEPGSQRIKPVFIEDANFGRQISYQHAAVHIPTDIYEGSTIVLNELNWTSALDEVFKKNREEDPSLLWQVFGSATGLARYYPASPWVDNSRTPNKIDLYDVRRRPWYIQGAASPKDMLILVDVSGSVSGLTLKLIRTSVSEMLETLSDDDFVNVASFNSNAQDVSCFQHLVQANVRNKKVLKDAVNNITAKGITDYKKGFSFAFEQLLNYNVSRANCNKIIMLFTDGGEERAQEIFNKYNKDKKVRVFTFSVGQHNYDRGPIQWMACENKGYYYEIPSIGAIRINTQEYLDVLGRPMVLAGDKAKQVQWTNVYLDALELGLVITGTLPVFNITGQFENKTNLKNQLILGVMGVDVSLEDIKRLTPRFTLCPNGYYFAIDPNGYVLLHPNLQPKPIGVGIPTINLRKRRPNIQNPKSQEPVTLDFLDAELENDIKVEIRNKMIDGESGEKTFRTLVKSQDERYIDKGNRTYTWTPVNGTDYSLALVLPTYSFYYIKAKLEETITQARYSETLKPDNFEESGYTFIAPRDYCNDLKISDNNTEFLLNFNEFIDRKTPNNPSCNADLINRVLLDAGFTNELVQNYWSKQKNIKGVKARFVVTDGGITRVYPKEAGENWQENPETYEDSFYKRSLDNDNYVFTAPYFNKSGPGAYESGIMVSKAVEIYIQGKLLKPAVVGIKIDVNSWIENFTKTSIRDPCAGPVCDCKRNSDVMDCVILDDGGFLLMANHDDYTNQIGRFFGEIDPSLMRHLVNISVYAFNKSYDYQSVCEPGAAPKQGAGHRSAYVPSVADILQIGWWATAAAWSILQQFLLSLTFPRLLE
Chain of L-type calcium channels (ICaL), CaV1.2 channels (P54289 957-1103 partner limits assumed): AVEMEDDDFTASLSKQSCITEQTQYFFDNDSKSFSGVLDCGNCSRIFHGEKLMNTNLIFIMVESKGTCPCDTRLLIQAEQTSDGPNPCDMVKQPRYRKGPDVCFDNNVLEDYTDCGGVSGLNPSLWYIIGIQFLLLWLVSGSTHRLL
Setting [10] is: Treatment A (flecainide 1 mg/kg, ibutilide 0.007 mg/kg or both, IV), individual animal.
Setting [11] is: Treatment B (flecainide 2 mg/kg, ibutilide 0.014 mg/kg or both, IV), individual animal.

Values joined by “and” are separate entries in the source; they are usually repeats but may differ in a detail not shown here. Equal values may be shown once. Read-outs that look alike come from different tables or passages of the source.

Consider `CCCCCCCCCCCCCCCC(=O)OC[C@H](COP(=O)([O-])OCC[N+](C)(C)C)OC(=O)CCCCCCCCCCCCCCC` [DPPC, dipalmitoylphosphatidylcholine], for which the solubility in water result in series [1] is listed as “about 10^−10 mol/L”.
In general, EC50 refers to the concentration giving half of the maximal effect. Turning to `O=C(NCC1CCCCN1)c1cc(OCC(F)(F)F)ccc1OCC(F)(F)F` (stereo not drawn) [Flecainide, N-(piperidin-2-ylmethyl)-2,5-bis(2,2,2-trifluoroethoxy)benzamide], in the series on Sinclair swine [2] (setting [10]), the “Avg ATcV, baseline-normalized post-infusion” value is −4.4% and −6.0% and −2.6%; the “Avg HR, baseline-normalized post-infusion” value was −7.2% and −26.5% and −9.6%; the “Avg PR, baseline-normalized post-infusion” value was 22.3% and 17.5% and 8.6%; the “Avg QRS, baseline-normalized post-infusion” value was 0.1% and −1.3% and 3.5%. Further, in the series on Sinclair swine [2] (setting [10]), the “Avg QT, baseline-normalized post-infusion” value is −3.5% and −1.6% and −1.4%; the “Avg QTcB, baseline-normalized post-infusion” value was −7.1% and −15.7% and −6.3%; the “Avg QTcF, baseline-normalized post-infusion” value was −5.9% and −11.2% and −4.7%. For the same compound, in the series with Sinclair swine [2] (Treatment A, group mean), the “Avg ATcV, baseline-normalized post-infusion” value is −4.3%; the “Avg HR, baseline-normalized post-infusion” value is on record as −14.5%; the “Avg PR, baseline-normalized post-infusion” value is on record as 16.1%; the “Avg QRS, baseline-normalized post-infusion” value is reported as 0.7%. In addition, in the series on Sinclair swine [2] (Treatment A, group mean), the “Avg QT, baseline-normalized post-infusion” value is given as −2.2%; the “Avg QTcB, baseline-normalized post-infusion” value is on record as −9.7%; the “Avg QTcF, baseline-normalized post-infusion” value is −7.3%. Further, in the series with Sinclair swine [2] (setting [11]), the “Avg ATcV, baseline-normalized post-infusion” value was 11.4% and −2.3% and −1.9%; the “Avg HR, baseline-normalized post-infusion” value was 0.4% and −18.8% and −13.6%; the “Avg PR, baseline-normalized post-infusion” value was 13.3% and 9.7% and 24.6%; the “Avg QRS, baseline-normalized post-infusion” value was 4.4% and 3.3% and 18.2%. In the series on Sinclair swine [2] (setting [11]), the “Avg QT, baseline-normalized post-infusion” value is 12.6% and 2.1% and 0.1%; the “Avg QTcB, baseline-normalized post-infusion” value was 12.8% and −8.0% and −6.9%; the “Avg QTcF, baseline-normalized post-infusion” value is 12.7% and −4.7% and −4.6%. Besides, in the series with Sinclair swine [2] (Treatment B, group mean), the “Avg ATcV, baseline-normalized post-infusion” value turned out to be 2.4%; the “Avg HR, baseline-normalized post-infusion” value is −10.7%; the “Avg PR, baseline-normalized post-infusion” value is 15.8%; the “Avg QRS, baseline-normalized post-infusion” value was 8.7%. For the same compound, in the series on Sinclair swine [2] (Treatment B, group mean), the “Avg QT, baseline-normalized post-infusion” value was found to be 4.9%; the “Avg QTcB, baseline-normalized post-infusion” value was −0.7%; the “Avg QTcF, baseline-normalized post-infusion” value came out at 1.1%. Moreover, the “unbinding time τoff” value in series [3] is given as “≈ 20.5 sec”. Moreover, in [4] (read-out: potency for inhibition of RyR2), the IC50 is approximately 20 µM. Besides, the IC50 in series [4] (value used in O'Hara-Rudy model, read-out: IC50 IRyR) is 20 µM. Further, in the series with Ito, the IC50 was 15.2 µM. At IK1, the concentration giving a half-maximal response (EC50) is 0.4 µM. Besides, the “patients with paroxysmal atrial fibrillation exhibiting resistance to monotherapy” value in [5] was “approximately 30%”.
Take `CCCCCCCN(CC)CCCC(O)c1ccc(NS(C)(=O)=O)cc1` (stereo not drawn) [Ibutilide, N-(4-(4-(ethyl(heptyl)amino)-1-hydroxybutyl)phenyl)methanesulfonamide]: the “termination of ACh-induced persistent AF (preparations terminated out of tested)” value in [6] was 1 out of 3. The “effect on repolarization (QT interval, Tpeak-Tend)” value in series [7] is “significantly prolonged repolarization”. Also, in the series with Sinclair swine [2] (setting [10]), the “Avg ATcV, baseline-normalized post-infusion” value is 14.4% and 10.5% and 5.0%; the “Avg HR, baseline-normalized post-infusion” value is −19.5% and −54.7% and −28.7%; the “Avg PR, baseline-normalized post-infusion” value was 4.8% and 40.7% and 7.1%; the “Avg QRS, baseline-normalized post-infusion” value is 8.2% and 7.3% and 4.9%. In addition, in the series with Sinclair swine [2] (setting [10]), the “Avg QT, baseline-normalized post-infusion” value was 19.9% and 28.1% and 11.7%; the “Avg QTcB, baseline-normalized post-infusion” value was 7.5% and −13.4% and −5.8%; the “Avg QTcF, baseline-normalized post-infusion” value was 11.5% and −1.4% and −0.3%. In addition, in the series with Sinclair swine [2] (Treatment A, group mean), the “Avg ATcV, baseline-normalized post-infusion” value was found to be 10.0%; the “Avg HR, baseline-normalized post-infusion” value is reported as −34.3%; the “Avg PR, baseline-normalized post-infusion” value was determined as 17.5%; the “Avg QRS, baseline-normalized post-infusion” value is 6.8%. In addition, in the series with Sinclair swine [2] (Treatment A, group mean), the “Avg QT, baseline-normalized post-infusion” value came to 19.9%; the “Avg QTcB, baseline-normalized post-infusion” value is −3.9%; the “Avg QTcF, baseline-normalized post-infusion” value was 3.3%. Also, in the series with Sinclair swine [2] (setting [11]), the “Avg ATcV, baseline-normalized post-infusion” value was 16.1% and 13.1% and 13.6%; the “Avg HR, baseline-normalized post-infusion” value is −38.3% and −12.7% and −15.4%; the “Avg PR, baseline-normalized post-infusion” value is 28.2% and 2.9% and 14.7%; the “Avg QRS, baseline-normalized post-infusion” value was 7.7% and 16.8% and 6.5%. Besides, in the series on Sinclair swine [2] (setting [11]), the “Avg QT, baseline-normalized post-infusion” value is 26.6% and 16.3% and 18.3%; the “Avg QTcB, baseline-normalized post-infusion” value is −0.6% and 8.5% and 8.9%; the “Avg QTcF, baseline-normalized post-infusion” value was 7.8% and 11.0% and 11.9%. For the same compound, in the series on Sinclair swine [2] (Treatment B, group mean), the “Avg ATcV, baseline-normalized post-infusion” value is listed as 14.3%; the “Avg HR, baseline-normalized post-infusion” value is given as −22.1%; the “Avg PR, baseline-normalized post-infusion” value was 15.3%; the “Avg QRS, baseline-normalized post-infusion” value amounted to 10.3%. In the series on Sinclair swine [2] (Treatment B, group mean), the “Avg QT, baseline-normalized post-infusion” value is recorded as 20.4%; the “Avg QTcB, baseline-normalized post-infusion” value came out at 5.6%; the “Avg QTcF, baseline-normalized post-infusion” value was 10.3%. Also, the “QT/QTc (QTcV) change post-infusion” value with Sinclair swine [2] (treatments A/B) is listed as “increased”. The abnormal clinical observations entry with Sinclair swine [8] is recorded as “stopped breathing under anesthesia”.
For `[Mg+2]` [Mg^2+], the “decrease in ICaL” value is given as “about 63%” in [9] (ICaL stimulated by cAMP (beta-adrenergic agonists)) and “about 26%” in series [9] (basal conditions).
